Assay results as given in ChEMBL document CHEMBL5465560, “Selectivity Literature for EUbOPEN Chemogenomic Library” (2024).
Where a chain is given by its changes, count along the chain named.

Legend:
Details in all cases: at 1 µM
[1] = system: T1, Receptor-type tyrosine-protein kinase FLT3 (Homo sapiens), P36888 [D835Y]; assay: (§1) Selectivity interaction (KinomeScan (DiscoverX)) EUB0001079a FLT3
T1 sequence (whole entry): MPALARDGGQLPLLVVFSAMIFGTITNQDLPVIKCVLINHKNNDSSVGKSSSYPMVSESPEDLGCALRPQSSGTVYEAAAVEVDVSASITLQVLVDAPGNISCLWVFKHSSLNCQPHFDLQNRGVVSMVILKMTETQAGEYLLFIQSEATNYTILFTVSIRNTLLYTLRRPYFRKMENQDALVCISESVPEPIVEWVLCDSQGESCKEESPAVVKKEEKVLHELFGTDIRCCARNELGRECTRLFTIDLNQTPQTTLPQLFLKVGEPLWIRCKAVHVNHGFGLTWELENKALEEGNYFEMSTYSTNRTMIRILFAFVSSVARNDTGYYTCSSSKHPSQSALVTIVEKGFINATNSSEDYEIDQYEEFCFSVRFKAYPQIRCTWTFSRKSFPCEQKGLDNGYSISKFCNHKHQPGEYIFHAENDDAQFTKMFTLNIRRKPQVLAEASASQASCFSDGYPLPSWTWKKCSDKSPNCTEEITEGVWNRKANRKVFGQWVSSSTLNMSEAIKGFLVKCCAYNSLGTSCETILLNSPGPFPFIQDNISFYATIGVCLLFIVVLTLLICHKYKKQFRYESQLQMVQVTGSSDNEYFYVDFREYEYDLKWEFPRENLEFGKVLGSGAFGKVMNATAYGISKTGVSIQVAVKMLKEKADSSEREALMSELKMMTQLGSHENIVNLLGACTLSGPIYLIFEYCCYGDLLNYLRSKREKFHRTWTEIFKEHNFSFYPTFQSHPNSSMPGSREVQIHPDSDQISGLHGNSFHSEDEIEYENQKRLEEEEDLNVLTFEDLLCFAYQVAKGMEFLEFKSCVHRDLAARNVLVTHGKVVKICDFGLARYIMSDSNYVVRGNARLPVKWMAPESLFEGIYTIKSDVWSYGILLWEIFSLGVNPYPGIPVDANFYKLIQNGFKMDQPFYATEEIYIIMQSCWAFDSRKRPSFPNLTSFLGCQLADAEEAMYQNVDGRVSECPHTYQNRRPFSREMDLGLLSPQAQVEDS

[2] = system: Receptor-type tyrosine-protein kinase FLT3 (Homo sapiens), P36888 [UNDEFINED MUTATION]; assay: as §1
[3] = target: Receptor-type tyrosine-protein kinase FLT3 (Homo sapiens) (UniProt P36888); assay: as §1
[4] = system: T2, Receptor-type tyrosine-protein kinase FLT3 (Homo sapiens), P36888 [D835H]; assay: as §1
T2 sequence (whole entry): T1 sequence (whole entry) with Y835H

[5] = system: T3, Receptor-type tyrosine-protein kinase FLT3 (Homo sapiens), P36888 [R834Q]; assay: as §1
T3 sequence (whole entry): T1 sequence (whole entry) with R834Q, Y835D

What does the source list for `Nc1cnc(N2CCc3cc(S(=O)(=O)Nc4c(F)cc(Cl)cc4F)cc(N4CCCC4=O)c32)nc1` [TP-020n]?
% of control [1]: 100%; % of control [2]: 92%; % of control [3]: 81%; % of control [4]: 100%; % of control [5]: 77%
